# What was measured:
# Experiment in all cases: relative viability (nuclei count vs DMSO), 5 days (fraction); higher = more cells survive
# [1] = compound: C1COCCN1C2=CC(=O)C3=C(O2)C(=CC=C3)C4=CC=CC5=C4SC6=CC=CC=C56
# Summary of the method: (§1)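 For viability, nuclei in each treated well were divided by nuclei in vehicle wells and the median across plates was taken. Lung cancer cell lines in 1536-well plates were pinned with five library-drug doses (not always all listed) spaced by √10, cultured 5 days without medium change, and imaged at 4× after Hoechst staining, with plates passing only at control CV below 25% and at least one doubling.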
# [2] = compound: CCN(CC)CCCCNc1ncc2cc(-c3cc(OC)cc(OC)c3)c(NC(=O)NC(C)(C)C)nc2n1
# Summary of the method: as §1
# PRIMA-1MET = compound: COCC1(CO)C(=O)C2CCN1CC2 [PRIMA-1MET]
# Summary of the method: as §1
# Zibotentan = compound: COc1nc(C)cnc1NS(=O)(=O)c1cccnc1-c1ccc(-c2nnco2)cc1 [Zibotentan]
# Summary of the method: as §1
# [3] = compound: O=c1cc(-c2cccc3c2Sc2ccccc2S3)oc(N2CCOCC2)c1
# Summary of the method: as §1
Cell Line,relative viability ([1]; 0.01 µM),relative viability ([1]; 0.03162 µM),relative viability ([1]; 0.1 µM),relative viability ([1]; 0.3162 µM),relative viability ([1]; 1 µM),relative viability ([2]; 0.01 µM),relative viability ([2]; 0.03162 µM),relative viability ([2]; 0.1 µM),relative viability ([2]; 0.3162 µM),relative viability ([2]; 1 µM),relative viability (PRIMA-1MET; 0.2 µM),relative viability (PRIMA-1MET; 0.6325 µM),relative viability (PRIMA-1MET; 2 µM),relative viability (PRIMA-1MET; 6.325 µM),relative viability (PRIMA-1MET; 20 µM),relative viability (Zibotentan; 0.08 µM),relative viability (Zibotentan; 0.253 µM),relative viability (Zibotentan; 0.8 µM),relative viability (Zibotentan; 2.53 µM),relative viability ([3]; 0.08 µM),relative viability ([3]; 0.253 µM),relative viability ([3]; 0.8 µM),relative viability ([3]; 2.53 µM),relative viability ([3]; 8 µM)
NCI-H2228,1.25,0.89,0.981,0.821,1.03,0.984,1.06,1.26,1.16,0.941,0.99,0.964,1.07,1.06,0.0562,1.09,0.997,0.956,0.994,1.04,1.09,1.02,1.07,1.1
NCI-H2342,1.01,1.04,0.955,0.959,0.875,0.932,0.899,0.971,1.09,1.06,1.07,1.05,0.693,0.974,0.915,0.937,0.945,0.944,0.942,0.836,1.07,0.964,0.982,1.04
NCI-H2347,1.11,0.979,0.957,0.981,0.988,0.998,1.01,1.12,1.15,0.931,0.961,0.959,0.779,1.11,1.02,1.04,0.95,1.12,1.06,0.96,1.07,1.1,1.13,1.13
NCI-H2405,1.03,0.906,1.03,1.1,0.958,0.988,1.03,1.13,1.08,0.982,0.881,0.972,–,0.952,0.509,1.06,0.942,1.03,1.09,0.958,0.998,0.979,0.878,1.14
NCI-H3122,1.01,0.988,1.01,0.961,1.01,1.02,1.04,1.07,1.1,0.967,0.85,0.972,0.948,1.01,1,1.02,1.01,0.978,0.98,1.01,1.02,1.03,1.03,1.08
PC-3 [JPC-3],0.965,1.01,0.91,1.03,0.977,1.1,1.02,1.12,1.23,0.911,1.16,1,0.997,1.07,0.997,1.06,0.979,1.05,1.06,0.99,1.05,1.02,0.943,1.08
PC-14,0.936,0.993,0.981,1.09,0.971,1.09,1.06,1.18,1.25,0.966,1.06,0.956,0.944,1.05,0.688,1.04,0.873,1.05,1.02,1.02,1.18,0.981,0.87,1.06
RERF-LC-KJ,0.992,0.974,1.03,0.949,0.956,1.02,1.11,1.04,1.06,0.978,1.11,1.01,1.06,1.12,0.952,1.02,0.925,0.904,1.03,0.932,1.09,1.03,0.968,0.929
SK-LU-1,1.05,1.13,0.92,1.07,1.04,1.05,0.991,1.24,1.27,0.952,1.16,1.06,0.801,1.13,0.837,1.01,1.04,1.02,1.08,1.14,1.14,1.3,0.97,1.13
SK-MES-1,1,1,0.999,0.988,0.934,1.09,1.07,1.08,1.08,1.01,1.1,1,0.993,1.09,0.98,1.01,0.911,0.955,1.07,1,1.16,0.927,0.933,0.928
SW 900,0.793,0.811,0.721,0.942,0.853,0.907,1.11,0.804,1.02,0.717,0.984,0.757,0.637,0.804,0.0765,0.918,0.75,0.851,0.921,0.622,0.892,0.942,0.809,0.774
SW 1573,0.981,0.998,0.985,0.952,0.938,0.932,1.01,1.09,1.02,0.906,1.11,0.787,0.87,0.246,0.0301,1.03,0.707,1.08,1.09,0.965,1.1,1,0.949,1.1
UMC-11,0.986,0.952,0.982,1.02,0.989,1.03,0.915,1.01,1.01,0.98,1.05,0.887,0.848,0.97,0.944,1.01,1.01,0.951,0.978,0.998,1.18,1.09,0.916,1.25

# — the supplement of paper PMC10307832
